# Source: patent US20260356826A1, “SALTS OF AMINO QUINAZOLINE DERIVATIVES” (CHIESI FARMACEUTICI S.P.A., priority 2023, published 2026)
# “Also recorded” adds a separate entry of the source. Counter-ions that a name gives are not always drawn. Like-named read-outs stand apart in the source and are kept apart here.
# Assays:
# Type in all cases: physicochemical
# [1] = Comparative stability at 40 °C and 75% RH at open conditions (UPLC/UV and XRPD); conditions: 40 °C/75% RH open; for % area main peak (LC/UV): 0 days
# Procedure: In a second experiment, approximately 100 mg of compound A mesylate salt Form 2 according to Example 2, free base Form A according to Example 1 and esylate salt Form 1 according to Example 6 were stored in three open amber glass vials covered with filter paper to simulate open conditions. The samples were stored in a stability chamber at 75% RH and 40 °C to compare their stability. At the time points 0, 28, 56, 84 days the corresponding samples were removed from the stability chambers. After conditioning at RT, the samples were analyzed by UPLC/UV and XRPD.
# [2] = Dissolution in Fasted State Simulated Gastric Fluid (FaSSGF), manual experiment, 37 °C; conditions: for Solubility: 37 °C
# Procedure: The dissolution in Fasted State Simulated Gastric Fluid (FaSSGF) of mesylate salt Form 2 of the compound A of Example 2 and esylate salt Form 1 of Example 6 in comparison with the free base Form A and with other salts was tested by means of manual experiment. The medium for simulated oral fluids was FaSSGF obtained from Biorelevant.com Ltd. The experiments were conducted for 60 minutes at 37 °C.
# General preparation of salts: in a round-bottomed flask, 200 mg of compound A free base Form A according to Example 1 (0.52 mmol) were suspended in 5 ml of solvent and stirred at RT. Acetone was employed for bromide, ethanedisulfonate, malonate, sulfate, saccharinate, tosylate, orotate, besylate, hemisulfate, phosphate and tartrate salts; water was employed for chloride salt; ethyl formate was employed for maleate, oxalate, gentisicate, fumarate and mandelate salts; tetrahydrofuran was employed for camphorsulfonate and pamoate salts; isopropyl acetate was employed for 4-hydroxybenzoate and methanol for camphorate salt. The corresponding acid was added under stirring in equimolar amount (except for hemisulfate, added in 0.5 molar amount). After 1 hour the crystalline solid was isolated by filtration, washed with the corresponding solvent (2×1 ml) and dried under nitrogen for 2 hours.
# The quantification of the dissolved amount was done by LC/UV system at different checkpoints up to 60 minutes. The saturation solution concentration was around 25-30 mg/ml. […] In a second experiment, the quantification was repeated with saturation solution concentration 170 mg/ml for the mesylate salt Form 2 and 100 mg/ml for the esylate salt Form 1. The results are reported in tables 8A, 8B, 8C, 8D and FIG. 28.
# [3] = Dynamic vapour sorption (DVS), hygroscopicity
# Procedure: Moisture sorption/desorption data were collected on a TA Instruments Vapor Sorption Analyzer Q5000SA.
# First step: sorption data was collected in the range 40% to 90% relative humidity (RH).
# Second Step: desorption, sorption and desorption data were collected over a range of 0% to 90% RH at 10% RH intervals under a nitrogen purge. Samples were not dried prior to analysis. Equilibrium criteria used for analysis were less than 0.100% weight change in 20 minutes, with a maximum equilibration time of 1 hour if the weight criterion was not met. Data were not corrected for the initial moisture content of the samples. NaBr was used as humidity verification.
# Moisture sorption/desorption data were also collected on a ProUmid SnS 23 equipped with a 23 autosampler following Method 1.
# In the first step sorption data was collected in the range 0% to 90% RH. Samples were not dried prior to analysis.
# In the second Step desorption, sorption and desorption data were collected over a range of 0% to 90% (RH) at 10% RH intervals under a nitrogen purge. Data were not corrected for the initial moisture content of the samples.
# [4] = Dissolution in simulated oral fluids (FaSSGF, FaSSIF, FeSSIF), DISS Profiler, 37 °C, 24 hours; conditions: for Maximum solubility: 1440 min
# Procedure: The dissolution of mesylate salt Form 2 of the compound A in comparison with the free base Form A of compound A was tested in all simulated oral fluids. The experiments were conducted with DISS Profiler 6 Channel Pion. The experiments were conducted until 24 hours at 37 °C.
# The mediums used, namely FaSSGF (Fasted State Simulated Gastric Fluid), FaSSIF (Fasted State Simulated Intestinal Fluid) and FeSSIF (Fed State Simulated Intestinal Fluid) were obtained from Biorelevant.com Ltd. The medium compositions are listed in table 9. The saturated solution concentrations were about 14-15 mg/ml (as free base) in FaSSGF and about 3-4 mg/ml (as free base) in FaSSIF and FeSSIF.
# [5] = Two-sector dissolution study (FaSSGF then FaSSIF), parachute effect; conditions: for Estimated supersaturation duration (parachute effect): second experiment, pH adjusted to 6.5 after FaSSIF addition; for Time of precipitation: protocol of the second experiment
# Procedure: The dissolution behaviour of mesylate salt Form 2 of compound A was studied in a two-sector model in comparison with free base Form A to evaluate a possible “spring-parachute effect”.
# The parachute effect is observable in two-sector dissolution studies. A test compound is incubated with FaSSGF and its concentration is monitored over time. FaSSIF is then added to the solution whilst continuing the monitoring. The period of time in which the test compound remains in solution without or before precipitating refers to the supersaturation time and represents the parachute effect.
# The experiment was conducted using DISS Profiler 6 Channel Pion. The free base Form A and mesylate salt Form 2 of compound A were each incubated in 8 ml of FaSSGF (pH 1.6) for 20 minutes at the concentration of 350 mg/250 ml. 16 ml of FaSSIF concentrated 1.5× (pH 6.5) was added with an incubation time of 180 minutes. The resulting target pH should be approximately 5-6. The experiment was conducted at 37 °C. The entire dissolution profile was monitored until the end of the experiment to evaluate a possible parachute effect, its duration and to evaluate the maximum solubility reached after the addition of FaSSIF.
# A second experiment was conducted, with an additional step of adjusting the pH to 6.5 after FaSSIF addition. Both free base Form A and mesylate salt Form 2 of compound A were tested.
# A third experiment was conducted on esylate salt Form 1 of compound A, using the same protocol of the second experiment, with free base Form A and mesylate salt Form 2 of compound A as controls. The experiment was aimed at evaluating comparatively a possible parachute effect of the esylate salt and its duration. Precipitation of the free base was observed after roughly 20 minutes, while precipitation of the esylate salt and mesylate salt were observed after 30 and 40 minutes respectively.
smiles,measurement,setting,value
"COc1cc(-c2ccc(F)cn2)cc2c(N[C@H](C)c3noc(C)n3)ncnc12 [free base Form A, (R)-6-(5-fluoropyridin-2-yl)-8-methoxy-N-(1-(5-methyl-1,2,4-oxadiazol-3-yl)ethyl)quinazolin-4-amine]",% area main peak (LC/UV),[1],99.8 % area
same,Solubility,"[2]; first experiment (saturation conc. around 25-30 mg/ml), 5 min",6.87 mg/mL
same,Solubility,"[2]; first experiment, 10 min",7.01 mg/mL
same,Solubility,"[2]; first experiment, 20 min",6.84 mg/mL
same,Solubility,"[2]; first experiment, 40 min",6.89 mg/mL
same,Solubility,"[2]; first experiment, 60 min",6.89 mg/mL
same,Solubility,"[2]; second experiment (saturation conc. 170 mg/ml mesylate, 100 mg/ml esylate), 0 min",0.63 mg/mL
same,Solubility,"[2]; second experiment, 15 min",12.77 mg/mL
same,Solubility,"[2]; second experiment, 30 min",11.89 mg/mL
same,Solubility,"[2]; second experiment, 60 min",13.47 mg/mL
same,Total weight gain (hygroscopicity),[3]; between 2.5% and 90% RH,about 0.249 wt %
same,Hygroscopicity,[3]; between 20% and 80% RH,No hygroscopicity was noted
same,Total water uptake,[3]; between 20% and 80% RH,0.249%
same,pH at the end of the experiment,[4]; FaSSGF,3.1
same,Time to decrease of solubility / duration of sustained solubility,"[4]; FaSSGF, 37 °C",approximately 3 hours
same,Dissolution behaviour,"[4]; FaSSGF, 37 °C, 24 hours","steady increase of solubility, but not complete solubilisation"
same,pH at the end of the experiment,[4]; FaSSIF,6.4
same,Maximum solubility,"[4]; FaSSIF, 37 °C, 24 hours",0.04 mg/mL
same,pH at the end of the experiment,[4]; FeSSIF,5.1
same,solubility at 24 h,"[4]; fassgf, 37 °C, 24 hours, read-out: Maximum solubility",~11 mg/mL
same,solubility at 24 h,"[4]; fessif, 37 °C, 24 hours, read-out: Maximum solubility",0.1 mg/mL
same,pH after the addition of FaSSIF,[5]; first experiment,5.8
same,Precipitation start after FaSSIF addition,"[5]; first experiment, no pH adjustment, 37 °C",about 10 minutes
same,Estimated supersaturation duration (parachute effect),[5],8 min
same,Time of precipitation,[5]; third experiment,roughly 20 minutes
"COc1cc(-c2ccc(F)cn2)cc2c(N[C@H](C)c3noc(C)n3)ncnc12 [mesylate salt Form 2, (R)-6-(5-fluoropyridin-2-yl)-8-methoxy-N-(1-(5-methyl-1,2,4-oxadiazol-3-yl)ethyl)quinazolin-4-amine]",Stability,[1]; 84 days,surprisingly good stability during stressed storage
same,% area main peak (LC/UV),[1],99.9 % area
same,Solubility,"[2]; first experiment (saturation conc. around 25-30 mg/ml), 5 min, listed as mesylate Form 2, 5 min",31.44 mg/mL
same,Solubility,"[2]; first experiment, 10 min, listed as mesylate Form 2, 10 min",31.92 mg/mL
same,Solubility,"[2]; first experiment, 20 min, listed as mesylate Form 2, 20 min",31.65 mg/mL
same,Solubility,"[2]; first experiment, 40 min, listed as mesylate Form 2, 40 min",31.16 mg/mL
same,Solubility,"[2]; first experiment, 60 min",≥ 25 mg/mL
same,Solubility,"[2]; first experiment, 60 min, listed as mesylate Form 2, 60 min",31.30 mg/mL
same,Solubility,"[2]; second experiment (saturation conc. 170 mg/ml mesylate, 100 mg/ml esylate), 0 min, listed as mesylate Form 2, 0 min",19.25 mg/mL
same,Solubility,"[2]; second experiment, 15 min, listed as mesylate Form 2, 15 min",151.67 mg/mL
same,Solubility,"[2]; second experiment, 30 min, listed as mesylate Form 2, 30 min",159.96 mg/mL
same,Solubility,"[2]; second experiment, 60 min, listed as mesylate Form 2, 60 min",169.82 mg/mL
same,Solubility compared to free base Form A,[2]; 60 minutes,consistently higher solubility than the free base Form A during the 60 minutes time
same,Dissolution,"[2]; first experiment, saturation conc. around 25-30 mg/ml",completely dissolved
same,Total weight gain (hygroscopicity),[3]; between 0% and 90% RH,about 1.049 wt %
same,pH at the end of the experiment,[4]; FaSSGF,1.8
same,Time to decrease of solubility / duration of sustained solubility,"[4]; FaSSGF, 37 °C",at least 24 hours
same,Dissolution behaviour,"[4]; FaSSGF, 37 °C, 24 hours",complete solubilisation was achieved; also recorded: no decrease in the solubility during the 24 hours
same,Maximum solubility,"[4]; FaSSGF, 37 °C, 24 hours",14.00 mg/mL
same,pH at the end of the experiment,[4]; FaSSIF,6.1
same,Maximum solubility,"[4]; FaSSIF, 37 °C, 24 hours",0.10 mg/mL
same,pH at the end of the experiment,[4]; FeSSIF,5.0
same,Maximum solubility,"[4]; FeSSIF, 37 °C, 24 hours",0.07 mg/mL
same,solubility at 24 h,"[4]; fassif, read-out: Solubility by UPLC/UV/MS at the end of the experiment",0.03 mg/mL
same,solubility at 24 h,"[4]; fessif, read-out: Solubility by UPLC/UV/MS at the end of the experiment",0.17 mg/mL
same,pH measured at the end of the experiment,[5]; first experiment,4.5
same,Precipitation after FaSSIF addition,"[5]; first experiment, no pH adjustment",No precipitation was observed
same,Estimated supersaturation duration (parachute effect),[5],14 min
same,Duration of the parachute effect compared to free base Form A,[5]; third experiment,longer duration of the parachute effect
same,Time of precipitation,[5]; third experiment,40 min
